Data from patent US8076487B2, “Pyridone derivative and herbicide” (Kumiai Chemical Industry Co., Ltd., priority 2006, dated 2011).

How the values were obtained:
Type in all cases: in vivo
[1] = system: Japanese bulrush (Scirpus juncoides Roxb.); test: Test Example 1: herbicidal effect by soil application to paddy field; conditions: paddy field soil application; active ingredient 1,000 g per 1 hectare; wettable powder added dropwise to water surface the day after sowing; examined on the 21st day after application
Method in brief: (§1)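 Under greenhouse conditions, seeds sown on puddled paddy soil in 100 cm2 pots under 3 cm of standing water received the test compound; injury was assessed with a standard scoring scheme three weeks (day 21) after treatment.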

[2] = system: early watergrass (Echinochloa oryzicola Vasing); test: as above; conditions: paddy field soil application; active ingredient 1,000 g per 1 hectare; wettable powder added dropwise to water surface the day after sowing; examined on the 21st day after application
Method in brief: as §1

[3] = system: heartshape false pickerelweed (Monochoria vaginalis (Burm.f.) C.Presl); test: as above; conditions: paddy field soil application; active ingredient 1,000 g per 1 hectare; wettable powder added dropwise to water surface the day after sowing; examined on the 21st day after application
Method in brief: as §1

[4] = system: barnyardgrass (Echinochloa crus-galli (L.) P. Beauv. var. crus-galli); test: Test Example 2: herbicidal effect by soil application to upland field; conditions: soil surface spray, upland field soil, 1,000 g active ingredient per hectare, 21st day after application
Method in brief: (§2)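 Dose was 1,000 g active ingredient per hectare, applied as a wettable powder diluted in water and sprayed evenly over the soil of sown, covered pots at a 1,000 L/ha equivalent. Effect was judged by a standard scale 21 d later under greenhouse conditions.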

[5] = system: green foxtail (Setaria viridis (L.) P. Beauv.); test: as above; conditions: soil surface spray, upland field soil, 1,000 g active ingredient per hectare, 21st day after application
Method in brief: as §2

[6] = system: slender amaranth (Amaranthus viridis L.); test: as above; conditions: soil surface spray, upland field soil, 1,000 g active ingredient per hectare, 21st day after application
Method in brief: as §2

[7] = system: velvetleaf (Abutilon theophrasti medicus); test: as above; conditions: soil surface spray, upland field soil, 1,000 g active ingredient per hectare, 21st day after application
Method in brief: as §2

[8] = system: barnyardgrass (Echinochloa crus-galli (L.) P. Beauv. var. crus-galli); test: Test Example 3: herbicidal effect by application to upland field (foliage treatment); conditions: foliage treatment, 1,000 g active ingredient per 1 hectare, 14th day after application, greenhouse
Method in brief: (§3)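 Foliage treatment, greenhouse: 2-week-old plants in field soil; wettable powder in water sprayed over the top at 1,000 g a.i./ha (1,000 L/ha); rating on day 14 post-application.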

[9] = system: green foxtail (Setaria viridis (L.) P. Beauv.); test: as above; conditions: foliage treatment, 1,000 g active ingredient per 1 hectare, 14th day after application, greenhouse
Method in brief: as §3

[10] = system: slender amaranth (Amaranthus viridis L.); test: as above; conditions: foliage treatment, 1,000 g active ingredient per 1 hectare, 14th day after application, greenhouse
Method in brief: as §3

[11] = system: velvetleaf (Abutilon theophrasti medicus); test: as above; conditions: foliage treatment, 1,000 g active ingredient per 1 hectare, 14th day after application, greenhouse
Method in brief: as §3

Structure (SMILES)	herbicidal effect, Scirpus juncoides Roxb. [1]	herbicidal effect, Echinochloa oryzicola Vasing [2]	herbicidal effect, Monochoria vaginalis (Burm. f.) C. Presl [3]	herbicidal effect (index), Barnyardgrass [4]	herbicidal effect (index), Green Foxtail [5]	herbicidal effect (index), Slender Amaranth [6]	herbicidal effect (index), Velvetleaf [7]	herbicidal effect, Barnyardgrass [8]	herbicidal effect, Green Foxtail [9]	herbicidal effect, Slender Amaranth [10]	herbicidal effect, Velvetleaf [11]
Cn1ncc(C(=O)c2ccc(C(F)(F)F)n(CCS(C)(=O)=O)c2=O)c1O [IV-54]	4 (70 to less than 90% of herbicidal effect and crop phytotoxicity)	5 (90% or more of herbicidal effect and crop phytotoxicity)	4 (70 to less than 90% of herbicidal effect and crop phytotoxicity)	5 (90% or more of herbicidal effect and crop phytotoxicity)	5 (90% or more of herbicidal effect and crop phytotoxicity)	5 (90% or more of herbicidal effect and crop phytotoxicity)	5 (90% or more of herbicidal effect and crop phytotoxicity)	5 (90% or more of herbicidal effect and crop phytotoxicity)	5 (90% or more of herbicidal effect and crop phytotoxicity)	5 (90% or more of herbicidal effect and crop phytotoxicity)	5 (90% or more of herbicidal effect and crop phytotoxicity)
COC(Cn1c(C(F)(F)F)ccc(C(=O)C2=C(O)CCCC2=O)c1=O)OC [I-137]	5 (90% or more of herbicidal effect and crop phytotoxicity)	5 (90% or more of herbicidal effect and crop phytotoxicity)	5 (90% or more of herbicidal effect and crop phytotoxicity)	5 (90% or more of herbicidal effect and crop phytotoxicity)	5 (90% or more of herbicidal effect and crop phytotoxicity)	5 (90% or more of herbicidal effect and crop phytotoxicity)	5 (90% or more of herbicidal effect and crop phytotoxicity)	5 (90% or more of herbicidal effect and crop phytotoxicity)	4 (70 to less than 90% of herbicidal effect and crop phytotoxicity)	5 (90% or more of herbicidal effect and crop phytotoxicity)	5 (90% or more of herbicidal effect and crop phytotoxicity)
C[S+]([O-])CCn1c(C(F)(F)F)ccc(C(=O)C2=C(O)C3CCC(C3)C2=O)c1=O (stereo not drawn) [III-29]	5 (90% or more of herbicidal effect and crop phytotoxicity)	5 (90% or more of herbicidal effect and crop phytotoxicity)	5 (90% or more of herbicidal effect and crop phytotoxicity)	5 (90% or more of herbicidal effect and crop phytotoxicity)	5 (90% or more of herbicidal effect and crop phytotoxicity)	5 (90% or more of herbicidal effect and crop phytotoxicity)	5 (90% or more of herbicidal effect and crop phytotoxicity)	5 (90% or more of herbicidal effect and crop phytotoxicity)	5 (90% or more of herbicidal effect and crop phytotoxicity)	5 (90% or more of herbicidal effect and crop phytotoxicity)	5 (90% or more of herbicidal effect and crop phytotoxicity)
